≈ marks a conversion by molar mass, not a printed value. *1 amine or outer side, *2 acyl side, *3 side chain or, on linkers, in order; H or OH if unused. Where a SMILES comes first, the peptide text is derived from it. Bridges are numbered along the chain shown (N, C = ends). [ ]: non-standard residue; d: D form. ξ: configuration not given here. ξαMeNle(6-ylidene) = CC(CCCC=[*:3])(N[*:1])C(=O)[*:2]; X1 = CC(CCCCCCC=[*:3])(N[*:1])C(=O)[*:2]; Lys(N3) = [N-]=[N+]=NCCCC[C@H](N)C(=O)O; R8 = C=CCCCCCC[C@@](C)(N)C(=O)O; ξαMeE = CC(N)(CCC(=O)O)C(=O)O; Cba = N[C@@H](CC1CCC1)C(=O)O; S5 = C=CCCC[C@](C)(N)C(=O)O; βAla = NCCC(=O)O
Columns and labels:
[1] = molecular target: T1, MDM2 (1-125; SEQ ID NO 14) (Homo sapiens, UniProt Q00987); assay: MDM2 binding assay (fluorescence anisotropy competition, FP)
T1 construct: GST (N); His6 (internal); TEV cleavage site ENLYFQG (internal); made in house; host or cells: E. coli BL21 (DE3) Rosetta T1R
T1 sequence (Q00987 with tags, fused parts or gaps): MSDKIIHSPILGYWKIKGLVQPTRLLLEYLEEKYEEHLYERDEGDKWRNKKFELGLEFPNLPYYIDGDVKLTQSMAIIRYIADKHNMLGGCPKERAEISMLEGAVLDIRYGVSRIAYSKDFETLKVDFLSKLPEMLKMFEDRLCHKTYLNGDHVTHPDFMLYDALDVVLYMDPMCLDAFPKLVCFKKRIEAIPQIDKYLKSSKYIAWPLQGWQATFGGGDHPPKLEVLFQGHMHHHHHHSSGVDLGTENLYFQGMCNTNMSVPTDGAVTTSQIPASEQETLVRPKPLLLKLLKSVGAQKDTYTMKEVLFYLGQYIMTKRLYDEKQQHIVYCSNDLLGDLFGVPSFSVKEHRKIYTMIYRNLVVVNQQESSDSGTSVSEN
Description: [P] is the protein concentration (MDM2), [L] is the labeled peptide concentration, r is the anisotropy measured, r0 is the anisotropy of the free peptide, rb is the anisotropy of the MDM2-FAM-labeled peptide complex, Kd is the dissociation constant, [L]t is the total FAM labeled peptide concentration, and [P]t is the total MDM2 concentration. […] The competing molecules were then titrated against the complex of the FAM-labeled peptide and protein. Apparent Kd values were determined by fitting the experimental data to the equations shown below:
[L]st and [L]t denote labeled ligand and total unlabeled ligand input concentrations, respectively. Kd2 is the dissociation constant of the interaction between the unlabeled ligand and the protein. In all competition experiments, it is assumed that [P]t>[L]st, otherwise considerable amounts of free labeled ligand would always be present and would interfere with measurements. […] The FAM-labeled peptide was dissolved in dimethyl sulfoxide (DMSO) at 1 mM and diluted into experimental buffer. Readings were carried out with an Envision Multilabel Reader (PerkinElmer). […] All titrations were carried out in triplicate. Curve-fitting was carried out using Prism 4.0 (GraphPad). […] Negative control titrations of the ligands under investigation were also carried out with the fluorescently labeled peptide (in the absence of MDM2) to ensure no interactions were occurring between the ligands and the FAM-labeled peptide.

[2] = tested on: p53 (HCT116 cells stably transfected with a p53 responsive β-lactamase reporter); assay: p53 beta-lactamase reporter gene cellular functional assay; format: cell-based
Description: HCT116 cells were stably transfected with a p53 responsive β-lactamase reporter, and were seeded into a 384-well plate at a density of 8,000 cells per well. Cells were maintained in McCoy's 5A Medium with 10% fetal bovine serum ([…]), Blasticidin and Penicillin/Streptomycin. The cells were incubated overnight and followed by removal of cell growth media and replaced with Opti-MEM either containing 0% FBS or 10% FBS. Peptides were then dispensed to each well using a liquid handler, ECHO 555 and incubated for 4/16 hours. Final working concentration of dimethyl sulfoxide (DMSO) was 0.5%. β-Lactamase activity was detected using the ToxBLAzer Dual Screen (Invitrogen) as per manufacturer's instructions. Measurements were done using Envision multiplate reader (Perkin-Elmer). Maximum p53 activity was defined as the amount of β-lactamase activity induced by 50 μM azide-ATSP-7041 (stapled p53 peptide; Aileron Therapeutics, Inc.). This was determined as the highest amount of p53 activity induced by azide-ATSP-7041 by titration on HCT116 cells.

HCT116 cells = assay: Lactate dehydrogenase release assay (LDH); format: cell-based
Description: HCT116 cells were seeded into a 384-well plate at a density of 8000 cells per well. Cells were maintained in McCoy's 5A Medium with 10% fetal bovine serum (FBS), Blasticidin and Penicillin/Streptomycin. The cells were incubated overnight followed by the removal of cell media and the addition of Opti-MEM Medium without FBS. Cells were then treated with peptides for 4/16 hours in Opti-MEM either in 10% FBS or serum free. Final concentration of DMSO was 0.5%. Lactate dehydrogenase release was detected using CytoTox-ONE Homogenous Membrane Integrity Assay Kit (Promega) as per manufacturer's instructions. Measurements were carried out using Tecan plate reader. Maximum LDH release was defined as the amount of LDH released induced by the lytic peptide (iDNA79) and used to normalize the results.

[3] = tested on: Jump-In T-REx CHO-K1 BLA cells; assay: Tetracycline beta-lactamase reporter gene assay (counter screen); format: cell-based
Description: Based on Jump-In™ T-REx™ CHO-K1 BLA cells and contain a stably integrated β-lactamase under the control of an inducible CMV promoter. Cells were seeded into a 384-well plate a density of 4000 cells per well. Cells were maintained in Dulbecco's Minimal Eagle Medium (DMEM) with 10% fetal bovine serum (FBS), Blasticidin and Penicillin/Streptomycin. The cells were incubated for 24 hours, followed by cell media removal and replacement with Opti-MEM either containing 10% FBS or 0% FBS. Peptides were then dispensed to each well using a liquid handler, ECHO 555 and incubated for 4/16 hours. Final working concentration of DMSO was 0.5%. β-Lactamase activity was detected using the ToxBLAzer Dual Screen (Invitrogen) as per manufacturer's instructions. Measurements were carried out using Envision multiplate reader (Perkin Elmer). Counter Screen activity was defined as the amount of 0-lactamase activity induced by tetracycline.

HCT116 = settings: for HCT116 proliferation % Max: 72 h, 10% serum; for EC50: read-out: cellular efficacy in cell proliferation HTC116 p53 positive control cell lines
p53 null Ca Ski = settings: for p53 null Ca Ski proliferation % Max: 72 h, 10% serum; for % inhibition at maximum concentration in p53 null negative control cell line: maximum assay concentration (50 uM)
Solubility (PBS, pH 7) = settings: pH 7

Structure (SMILES)	Kd [1] [µM]	EC50 ([2]; 0% serum at 4 hours) [µM]	EC50 ([2]; 10% serum at 16 hours) [µM]	fold improvement of cellular activity in p53 cellular assay ([2]; versus Reference Macrocycle 1, both 0% serum at 4 hours and 10% serum at 16 hours) [fold]	EC50 (HCT116 cells; 0% FBS, 4 h) [µM]	EC50 (HCT116 cells; 10% FBS, 16 h) [µM]	EC50 ([3]; 0% FBS, 4 h) [µM]	EC50 ([3]; 10% FBS, 16 h) [µM]	HCT116 proliferation % Max (HCT116) [%]	EC50 (HCT116) [µM]	p53 null Ca Ski proliferation % Max (p53 null Ca Ski) [%]	% inhibition at maximum concentration in p53 null negative control cell line (p53 null Ca Ski) [%]	logD (HPLC LogD)	solubility (Solubility (PBS, pH 7); PBS) [µM]	chromatographic logD (HPLC LogD)	solubility (Solubility (PBS, pH 7)) [µM]	EC50 (p53 null Ca Ski; read-out: EC50 in p53 null negative control cell line) [µM]
CC(=O)N[C@@H](CCCCN=[N+]=[N-])C(=O)NCCC(=O)N[C@@H](CC(C)C)C(=O)N[C@H](C(=O)N[C@@H](Cc1ccccc1)C(=O)N[C@]1(C)CCCCCCC=CCCC[C@@](C)(C(=O)N[C@@H](C)C(=O)N[C@@H](C)C(=O)N[C@@H](C)C(=O)N[C@@H](C)C(=O)N[C@@H](C)C(=O)N[C@@H](C)C(N)=O)NC(=O)[C@H](CC2CCC2)NC(=O)[C@H](CCC(N)=O)NC(=O)[C@H](C)NC(=O)[C@H](Cc2c[nH]c3ccccc23)NC(=O)[C@H](Cc2ccc(O)cc2)NC(=O)[C@H](CCC(=O)O)NC1=O)[C@@H](C)O [Macrocycle 2, Ac-K(N3)-betaAla-L-T-F-X1a-E-Y-W-A-Q-Cba-X2a-AAAAAA-NH2 (olefin staple from X1a to X2a)] (Ac-[Lys(N3)][βAla]LTF[R8]EYWAQ[Cba][S5]AAAAAA-NH2; staple 6-13)	0.0094	0.143	0.749	~3.5	> 50	> 50	> 50	> 50	89	0.57	29	29	–	–	–	–	–
CC(=O)N[C@@H](CCCCN=[N+]=[N-])C(=O)NCCC(=O)N[C@@H](CC(C)C)C(=O)N[C@H](C(=O)N[C@@H](Cc1ccccc1)C(=O)N[C@]1(C)CCCCCCC=CCCC[C@@](C)(C(=O)N[C@@H](C)C(=O)N[C@@H](C)C(=O)N[C@@H](Cc2ccccc2)C(=O)N[C@@H](C)C(=O)N[C@@H](C)C(=O)N[C@H](Cc2ccccc2)C(N)=O)NC(=O)[C@H](CC2CCC2)NC(=O)[C@H](CCC(N)=O)NC(=O)[C@H](C)NC(=O)[C@H](Cc2c[nH]c3ccccc23)NC(=O)[C@H](Cc2ccc(O)cc2)NC(=O)[C@H](CCC(=O)O)NC1=O)[C@@H](C)O [Macrocycle 5, Ac-K(N3)-betaAla-L-T-F-X1a-E-Y-W-A-Q-Cba-X2a-AAFAA-(D-Phe)-NH2(olefinstaple from X1ato X2a)] (Ac-[Lys(N3)][βAla]LTF[R8]EYWAQ[Cba][S5]AAFAA[dF]-NH2; staple 6-13)	0.056	–	–	–	> 50	> 50	> 50	> 50	–	–	–	–	4.12	9 (≈ 20.9 µg/mL)	–	–	–
CC(=O)N[C@@H](CCCCN=[N+]=[N-])C(=O)NCCC(=O)N[C@@H](CC(C)C)C(=O)N[C@H](C(=O)N[C@@H](Cc1ccccc1)C(=O)N[C@]1(C)CCCCCCC=CCCC[C@@](C)(C(=O)N[C@@H](C)C(=O)N[C@@H](C)C(=O)N[C@@H](C)C(=O)N[C@@H](C)C(=O)N[C@@H](C)C(=O)N[C@@H](Cc2ccccc2)C(N)=O)NC(=O)[C@H](CC2CCC2)NC(=O)[C@H](CCC(N)=O)NC(=O)[C@H](C)NC(=O)[C@H](Cc2c[nH]c3ccccc23)NC(=O)[C@H](Cc2ccc(O)cc2)NC(=O)[C@H](CCC(=O)O)NC1=O)[C@@H](C)O [Macrocycle 6, Ac-K(N3)-betaAla-L-T-F-X1a-E-Y-W-A-Q-Cba-X2a-AAAAAF-NH2 (olefin staple from X1a to X2a)] (Ac-[Lys(N3)][βAla]LTF[R8]EYWAQ[Cba][S5]AAAAAF-NH2; staple 6-13)	0.0021	–	–	–	> 50	> 50	> 50	> 50	–	–	–	–	–	–	–	–	–
CC(=O)N[C@@H](CCCCN=[N+]=[N-])C(=O)NCCC(=O)N[C@@H](CC(C)C)C(=O)N[C@H](C(=O)N[C@@H](Cc1ccccc1)C(=O)N[C@]1(C)CCCCCCC=CCCC[C@@](C)(C(=O)N[C@@H](C)C(=O)N[C@@H](C)C(=O)N[C@@H](Cc2ccccc2)C(=O)N[C@@H](C)C(=O)N[C@@H](C)C(=O)N[C@H](C)C(N)=O)NC(=O)[C@H](CC2CCC2)NC(=O)[C@H](CCC(N)=O)NC(=O)[C@H](C)NC(=O)[C@H](Cc2c[nH]c3ccccc23)NC(=O)[C@H](Cc2ccc(O)cc2)NC(=O)[C@H](CCC(=O)O)NC1=O)[C@@H](C)O [Macrocycle 7, Ac-K(N3)-betaAla-L-T-F-X1a-E-Y-W-A-Q-Cba-X2a-AAFAA-(D-Ala)-NH2(olefinstaple from X1ato X2a)] (Ac-[Lys(N3)][βAla]LTF[R8]EYWAQ[Cba][S5]AAFAA[dA]-NH2; staple 6-13)	0.0042	–	–	–	> 50	> 50	> 50	> 50	–	–	–	–	3.59	2 (≈ 4.49 µg/mL)	–	–	–
CC(=O)N[C@@H](CCCCN=[N+]=[N-])C(=O)NCCC(=O)N[C@@H](CC(C)C)C(=O)N[C@H](C(=O)N[C@@H](Cc1ccccc1)C(=O)NC1(C)CCCCCCC=CCCCC(C)(C(=O)N[C@@H](C)C(=O)N[C@@H](C)C(=O)N[C@@H](Cc2ccccc2)C(=O)N[C@@H](C)C(=O)NC(C)(CCC(=O)O)C(=O)N[C@@H](Cc2ccccc2)C(N)=O)NC(=O)[C@H](CC2CCC2)NC(=O)[C@H](CCC(N)=O)NC(=O)[C@H](C)NC(=O)[C@H](Cc2c[nH]c3ccccc23)NC(=O)[C@H](Cc2ccc(O)cc2)NC(=O)[C@H](CCC(=O)O)NC1=O)[C@@H](C)O (stereo partly drawn) [Macrocycle 9, Ac-K(N3)-betaAla-L-T-F-X1a-E-Y-W-A-Q-Cba-X2a-AAFA-(alpha-methyl-Glu)-F-NH2(olefinstaple from X1ato X2a)] (Ac-[Lys(N3)][βAla]LTF[X1]EYWAQ[Cba][ξαMeNle(6-ylidene)]AAFA[ξαMeE]F-NH2; staple 6-13)	–	–	–	–	–	–	> 50	> 50	–	–	–	–	–	–	2.93	153 (≈ 366 µg/mL)	–
CC(=O)N[C@@H](CCCCN=[N+]=[N-])C(=O)NCCC(=O)N[C@@H](CC(C)C)C(=O)N[C@H](C(=O)N[C@@H](Cc1ccccc1)C(=O)N[C@]1(C)CCCCC#CC#CCCC[C@@](C)(C(=O)N[C@@H](C)C(=O)N[C@@H](C)C(=O)N[C@@H](C)C(=O)N[C@@H](C)C(=O)N[C@@H](C)C(=O)N[C@@H](C)C(N)=O)NC(=O)[C@H](CC2CCC2)NC(=O)[C@H](CCC(N)=O)NC(=O)[C@H](C)NC(=O)[C@H](Cc2c[nH]c3ccccc23)NC(=O)[C@H](Cc2ccc(O)cc2)NC(=O)[C@H](CCC(=O)O)NC1=O)[C@@H](C)O [Macrocycle 12, Ac-K(N3)-betaAla-L-T-F-X1b-E-Y-W-A-Q-Cba-X2b-AAAAAA-NH2 (di-alkyne staple from X1b to X2b)]	–	–	–	–	> 50	> 50	> 50	> 50	72	0.124	3	3	–	–	2.69	–	> 50

Reference: patent US20250034211A1, “C-TERMINAL EXTENDED P53 ACTIVATOR CROSSLINKED PEPTIDOMIMETIC MACROCYCLES AGAINST MDM2/MDMX” (Merck Sharp & Dohme LLC, priority 2021, published 2025)
